Results: PubChem BioAssay AID246 (DTP/NCI, 2004)
Values joined by “and” are separate entries in the source; they are usually repeats but may differ in a detail not shown here. Equal values may be shown once. Inconclusive results and toxic doses are left out.

System: BDF1 mice, P1081 chloroleukemia ip, survival T/C
Experiment: NCI In Vivo Anticancer Drug Screen. Data for tumor model P1081 Chloroleukemia (intraperitoneal) in B6D2F1 (BDF1) mice
Settings: endpoint: mean survival time, higher = longer survival
Protocol: The antitumor activity of compounds was measured in mice bearing transplantable tumors. Survival or tumor size were measured and the results are expressed as the measurement made in the treated group (T) divided by the measurement made in the vehicle treated control group (C). The tumor model used in this assay is P1081 Chloroleukemia (intraperitoneal) in B6D2F1 (BDF1) mice

[1] = dose: 25.0 mg/kg/injection, schedule: Q01DX010 (ip), vehicle: saline
[2] = dose: 50.0 mg/kg/injection, schedule: Q01DX010 (ip), vehicle: saline
[3] = dose: 100.0 mg/kg/injection, schedule: Q01DX010 (ip), vehicle: saline
[4] = dose: 6.25 mg/kg/injection, schedule: Q01DX Z (ip), vehicle: carboxymethylcellulose (CMC)
[5] = dose: 12.5 mg/kg/injection, schedule: Q01DX Z (ip), vehicle: carboxymethylcellulose (CMC)
[6] = dose: 25.0 mg/kg/injection, schedule: Q01DX Z (ip), vehicle: carboxymethylcellulose (CMC)
[7] = dose: 50.0 mg/kg/injection, schedule: Q01DX Z (ip), vehicle: carboxymethylcellulose (CMC)

## O=C1C(NC(=O)C2CCCCC2)=C(N2CC2)C(=O)C(NC(=O)C2CCCCC2)=C1N1CC1
dose: 4.7 mg/kg/injection, schedule: Q01DX Z (ip), vehicle: carboxymethylcellulose (CMC)
  T/C: 118 % of control
dose: 9.4 mg/kg/injection, schedule: Q01DX Z (ip), vehicle: carboxymethylcellulose (CMC)
  T/C: 109 % of control and 103 % of control
dose: 18.8 mg/kg/injection, schedule: Q01DX Z (ip), vehicle: carboxymethylcellulose (CMC)
  T/C: 117 % of control
[1]
  T/C: 90 % of control
dose: 37.5 mg/kg/injection, schedule: Q01DX Z (ip), vehicle: carboxymethylcellulose (CMC)
  T/C: 112 % of control and 117 % of control
[2]
  T/C: 90 % of control
dose: 75.0 mg/kg/injection, schedule: Q01DX Z (ip), vehicle: carboxymethylcellulose (CMC)
  T/C: 109 % of control
[3]
  T/C: 90 % of control
dose: 150.0 mg/kg/injection, schedule: Q01DX Z (ip), vehicle: carboxymethylcellulose (CMC)
  T/C: 116 % of control
dose: 300.0 mg/kg/injection, schedule: Q01DX Z (ip), vehicle: carboxymethylcellulose (CMC)
  T/C: 109 % of control
dose: 600.0 mg/kg/injection, schedule: Q01DX Z (ip), vehicle: carboxymethylcellulose (CMC)
  T/C: 88 % of control

## NC(=O)N(CCCl)N=O
dose: 1.0 mg/kg/injection, schedule: Q01DX Z (ip), vehicle: carboxymethylcellulose (CMC)
  T/C: 97 % of control
dose: 4.0 mg/kg/injection, schedule: Q01DX Z (ip), vehicle: carboxymethylcellulose (CMC)
  T/C: 95 % of control
dose: 8.0 mg/kg/injection, schedule: Q01DX Z (ip), vehicle: carboxymethylcellulose (CMC)
  T/C: 106 % of control
dose: 16.0 mg/kg/injection, schedule: Q01DX Z (ip), vehicle: carboxymethylcellulose (CMC)
  T/C: 108 % of control

## CCCSc1ncnc2nc[nH]c12
[4]
  T/C: 111 % of control
[5]
  T/C: 122 % of control
dose: 31.3 mg/kg/injection, schedule: Q01DX010 (ip), vehicle: saline
  T/C: 105 % of control and 100 % of control
dose: 62.5 mg/kg/injection, schedule: Q01DX010 (ip), vehicle: saline
  T/C: 105 % of control and 111 % of control
dose: 125.0 mg/kg/injection, schedule: Q01DX010 (ip), vehicle: saline
  T/C: 105 % of control and 111 % of control
dose: 250.0 mg/kg/injection, schedule: Q01DX010 (ip), vehicle: saline
  T/C: 122 % of control and 100 % of control

## Nc1ncnc2[nH]ncc12
dose: 0.78 mg/kg/injection, schedule: Q01DX Z (ip), vehicle: carboxymethylcellulose (CMC)
  T/C: 94 % of control
dose: 1.5 mg/kg/injection, schedule: Q01DX010 (ip), vehicle: saline
  T/C: 111 % of control
dose: 1.56 mg/kg/injection, schedule: Q01DX Z (ip), vehicle: carboxymethylcellulose (CMC)
  T/C: 103 % of control
dose: 3.0 mg/kg/injection, schedule: Q01DX010 (ip), vehicle: saline
  T/C: 116 % of control and 100 % of control
dose: 3.12 mg/kg/injection, schedule: Q01DX Z (ip), vehicle: carboxymethylcellulose (CMC)
  T/C: 112 % of control
dose: 6.0 mg/kg/injection, schedule: Q01DX010 (ip), vehicle: saline
  T/C: 111 % of control and 105 % of control
[4]
  T/C: 94 % of control
dose: 12.0 mg/kg/injection, schedule: Q01DX010 (ip), vehicle: saline
  T/C: 88 % of control and 105 % of control

## CCN(CC)CCNc1ccc(C)c2sc3ccccc3c(=O)c12
dose: 1.56 mg/kg/injection, schedule: Q01DX Z (ip), vehicle: methylcellulose (MC)
  T/C: 87 % of control
dose: 6.25 mg/kg/injection, schedule: Q01DX Z (ip), vehicle: methylcellulose (MC)
  T/C: 88 % of control
dose: 6.3 mg/kg/injection, schedule: Q01DX Z (ip), vehicle: methylcellulose (MC)
  T/C: 90 % of control
dose: 12.5 mg/kg/injection, schedule: Q01DX Z (ip), vehicle: methylcellulose (MC)
  T/C: 91 % of control
[1]
  T/C: 110 % of control and 122 % of control
dose: 25.0 mg/kg/injection, schedule: Q01DX Z (ip), vehicle: methylcellulose (MC)
  T/C: 95 % of control
[2]
  T/C: 150 % of control
dose: 50.0 mg/kg/injection, schedule: Q01DX Z (ip), vehicle: methylcellulose (MC)
  T/C: 96 % of control
[3]
  T/C: 122 % of control and 95 % of control
dose: 100.0 mg/kg/injection, schedule: Q01DX Z (ip), vehicle: methylcellulose (MC)
  T/C: 101 % of control

## Nc1ncnc2c1ccn2C1OC(CO)C(O)C1O (stereo unspecified)
dose: 0.04 mg/kg/injection, schedule: Q01DX Z (ip), vehicle: carboxymethylcellulose (CMC)
  T/C: 98 % of control
dose: 0.08 mg/kg/injection, schedule: Q01DX Z (ip), vehicle: carboxymethylcellulose (CMC)
  T/C: 94 % of control
dose: 0.16 mg/kg/injection, schedule: Q01DX Z (ip), vehicle: carboxymethylcellulose (CMC)
  T/C: 101 % of control
dose: 0.31 mg/kg/injection, schedule: Q01DX Z (ip), vehicle: carboxymethylcellulose (CMC)
  T/C: 110 % of control and 112 % of control
dose: 0.63 mg/kg/injection, schedule: Q01DX Z (ip), vehicle: carboxymethylcellulose (CMC)
  T/C: 108 % of control
dose: 1.25 mg/kg/injection, schedule: Q01DX Z (ip), vehicle: carboxymethylcellulose (CMC)
  T/C: 88 % of control

## CN(C)c1ccc(/C=C\c2ccnc3ccccc23)cc1
dose: 0.4 mg/kg/injection, schedule: Q01DX Z (ip), vehicle: water
  T/C: 87 % of control
dose: 0.8 mg/kg/injection, schedule: Q01DX Z (ip), vehicle: water
  T/C: 99 % of control
dose: 1.6 mg/kg/injection, schedule: Q01DX Z (ip), vehicle: water
  T/C: 108 % of control and 122 % of control
dose: 3.1 mg/kg/injection, schedule: Q01DX Z (ip), vehicle: water
  T/C: 99 % of control and 105 % of control
dose: 6.25 mg/kg/injection, schedule: Q01DX Z (ip), vehicle: water
  T/C: 90 % of control and 94 % of control
dose: 6.3 mg/kg/injection, schedule: Q01DX Z (ip), vehicle: water
  T/C: 118 % of control and 120 % of control
dose: 12.5 mg/kg/injection, schedule: Q01DX Z (ip), vehicle: water
  T/C: 112 % of control and 94 % of control and 105 % of control
dose: 25.0 mg/kg/injection, schedule: Q01DX Z (ip), vehicle: water
  T/C: 118 % of control and 88 % of control and 90 % of control

## Cn1cnc([N+](=O)[O-])c1Sc1ncnc2nc[nH]c12
[6]
  T/C: 165 % of control
[7]
  T/C: 150 % of control
dose: 100.0 mg/kg/injection, schedule: Q01DX Z (ip), vehicle: carboxymethylcellulose (CMC)
  T/C: 104 % of control

## OCC1OC(n2cnc3c(=S)nc[nH]c32)C(O)C1O (stereo unspecified)
dose: 20.0 mg/kg/injection, schedule: Q01DX010 (ip), vehicle: saline
  T/C: 110 % of control and 105 % of control
dose: 40.0 mg/kg/injection, schedule: Q01DX010 (ip), vehicle: saline
  T/C: 110 % of control and 100 % of control
dose: 62.5 mg/kg/injection, schedule: Q01DX Z (ip), vehicle: carboxymethylcellulose (CMC)
  T/C: 160 % of control
dose: 80.0 mg/kg/injection, schedule: Q01DX010 (ip), vehicle: saline
  T/C: 115 % of control and 120 % of control
dose: 125.0 mg/kg/injection, schedule: Q01DX Z (ip), vehicle: carboxymethylcellulose (CMC)
  T/C: 158 % of control
dose: 160.0 mg/kg/injection, schedule: Q01DX010 (ip), vehicle: saline
  T/C: 120 % of control
dose: 250.0 mg/kg/injection, schedule: Q01DX Z (ip), vehicle: carboxymethylcellulose (CMC)
  T/C: 104 % of control
dose: 500.0 mg/kg/injection, schedule: Q01DX Z (ip), vehicle: carboxymethylcellulose (CMC)
  T/C: 94 % of control

## CC(=O)Nc1ccc2nc3ccc(NC(C)=O)cc3[n+](-c3ccccc3)c2c1
[5]
  T/C: 103 % of control
[6]
  T/C: 109 % of control
[7]
  T/C: 111 % of control

## CN(C)/N=N/c1nc[nH]c1C(N)=O
[1]
  T/C: 120 % of control
[2]
  T/C: 120 % of control
[3]
  T/C: 160 % of control and 177 % of control
dose: 200.0 mg/kg/injection, schedule: Q01DX010 (ip), vehicle: saline
  T/C: 122 % of control

## O=C(Nc1ccc(C2=NCCCN2)cc1)c1ccc(NC(=O)c2ccc(C3=NCCCN3)cc2)cc1
dose: 1.95 mg/kg/injection, schedule: Q01DX Z (ip), vehicle: water
  T/C: 123 % of control
dose: 3.9 mg/kg/injection, schedule: Q01DX Z (ip), vehicle: carboxymethylcellulose (CMC)
  T/C: 157 % of control
dose: 3.9 mg/kg/injection, schedule: Q01DX Z (ip), vehicle: water
  T/C: 193 % of control
dose: 7.8 mg/kg/injection, schedule: Q01DX Z (ip), vehicle: water
  T/C: 202 % of control
dose: 15.6 mg/kg/injection, schedule: Q01DX Z (ip), vehicle: carboxymethylcellulose (CMC)
  T/C: 92 % of control
dose: 15.6 mg/kg/injection, schedule: Q01DX Z (ip), vehicle: water
  T/C: 86 % of control

## C[C@]12CCC(=O)C[C@H]1CC[C@@H]1[C@@H]2CC[C@@]2(C)[C@H]1CC[C@]2(C)O
dose: 62.5 mg/kg/injection, schedule: Q01DX Z (sc), vehicle: steriod suspending solution
  T/C: 114 % of control
dose: 125.0 mg/kg/injection, schedule: Q01DX Z (sc), vehicle: steriod suspending solution
  T/C: 100 % of control
dose: 250.0 mg/kg/injection, schedule: Q01DX Z (sc), vehicle: steriod suspending solution
  T/C: 110 % of control
dose: 500.0 mg/kg/injection, schedule: Q01DX Z (sc), vehicle: steriod suspending solution
  T/C: 112 % of control
